Reference: ChEMBL document CHEMBL1155971, “Discovery of a novel class of isoxazoline voltage gated sodium channel blockers” (Bioorg Med Chem Lett, 2009)

Columns and labels:
[1] = target: T1, Sodium channel protein type 9 subunit alpha (Homo sapiens, UniProt Q15858); assay: Inhibition of human Nav1.7 channel expressed in HEK cells at 1 uM by FRET assay; type: cell-based; settings: HEK293
Target sequence in this assay (Q15858 whole entry, looked up): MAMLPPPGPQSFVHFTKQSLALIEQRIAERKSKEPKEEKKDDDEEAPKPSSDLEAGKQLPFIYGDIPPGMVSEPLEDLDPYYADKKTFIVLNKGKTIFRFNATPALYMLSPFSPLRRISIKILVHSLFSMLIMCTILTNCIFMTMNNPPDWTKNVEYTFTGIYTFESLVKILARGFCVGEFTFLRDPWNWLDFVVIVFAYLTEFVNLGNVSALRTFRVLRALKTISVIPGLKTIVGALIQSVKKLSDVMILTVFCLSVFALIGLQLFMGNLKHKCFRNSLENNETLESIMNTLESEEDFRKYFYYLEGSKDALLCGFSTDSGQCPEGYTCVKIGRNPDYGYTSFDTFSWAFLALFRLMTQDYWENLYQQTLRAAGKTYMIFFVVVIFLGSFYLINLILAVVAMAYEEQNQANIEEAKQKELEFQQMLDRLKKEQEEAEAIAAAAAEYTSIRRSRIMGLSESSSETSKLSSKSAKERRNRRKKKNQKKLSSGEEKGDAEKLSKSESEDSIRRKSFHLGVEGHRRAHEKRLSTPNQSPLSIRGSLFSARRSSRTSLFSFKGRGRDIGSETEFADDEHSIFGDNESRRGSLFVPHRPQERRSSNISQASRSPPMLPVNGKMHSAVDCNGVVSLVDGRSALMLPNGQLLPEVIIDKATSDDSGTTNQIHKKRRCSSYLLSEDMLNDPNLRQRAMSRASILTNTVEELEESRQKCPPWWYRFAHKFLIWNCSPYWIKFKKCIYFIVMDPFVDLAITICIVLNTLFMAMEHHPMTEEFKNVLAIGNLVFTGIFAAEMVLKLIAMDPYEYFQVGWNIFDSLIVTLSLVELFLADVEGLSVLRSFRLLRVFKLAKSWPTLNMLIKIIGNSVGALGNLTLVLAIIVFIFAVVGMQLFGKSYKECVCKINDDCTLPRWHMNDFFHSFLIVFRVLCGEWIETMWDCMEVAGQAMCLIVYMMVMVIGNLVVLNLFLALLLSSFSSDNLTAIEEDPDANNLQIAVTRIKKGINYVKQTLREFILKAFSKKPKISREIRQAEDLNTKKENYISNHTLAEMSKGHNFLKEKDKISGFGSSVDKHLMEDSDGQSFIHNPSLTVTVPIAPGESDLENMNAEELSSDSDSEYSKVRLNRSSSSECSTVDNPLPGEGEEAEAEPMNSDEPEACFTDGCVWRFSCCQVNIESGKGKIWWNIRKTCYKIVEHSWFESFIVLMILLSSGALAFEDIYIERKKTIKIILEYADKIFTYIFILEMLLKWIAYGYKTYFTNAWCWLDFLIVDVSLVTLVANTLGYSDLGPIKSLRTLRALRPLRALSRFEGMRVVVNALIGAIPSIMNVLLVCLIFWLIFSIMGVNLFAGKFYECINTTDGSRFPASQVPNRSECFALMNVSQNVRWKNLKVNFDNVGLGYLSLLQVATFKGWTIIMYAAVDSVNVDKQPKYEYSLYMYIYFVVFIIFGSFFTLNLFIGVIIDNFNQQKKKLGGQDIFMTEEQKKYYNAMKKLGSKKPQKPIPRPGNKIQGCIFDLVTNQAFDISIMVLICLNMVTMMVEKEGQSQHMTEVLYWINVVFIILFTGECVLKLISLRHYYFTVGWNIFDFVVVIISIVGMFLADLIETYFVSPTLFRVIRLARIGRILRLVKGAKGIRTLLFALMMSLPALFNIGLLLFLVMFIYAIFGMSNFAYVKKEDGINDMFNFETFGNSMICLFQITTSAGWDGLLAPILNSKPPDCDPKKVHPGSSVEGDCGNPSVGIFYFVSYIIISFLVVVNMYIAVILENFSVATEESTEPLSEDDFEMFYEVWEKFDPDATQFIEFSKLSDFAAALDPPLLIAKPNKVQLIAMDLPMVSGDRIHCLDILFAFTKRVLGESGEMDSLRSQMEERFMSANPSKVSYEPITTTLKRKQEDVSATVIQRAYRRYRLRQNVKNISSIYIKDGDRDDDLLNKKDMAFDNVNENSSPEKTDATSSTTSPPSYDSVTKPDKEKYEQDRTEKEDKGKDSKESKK

[2] = target: T1, Sodium channel protein type 9 subunit alpha; assay: Inhibition of human Nav1.7 channel expressed in HEK cells by FRET assay; type: cell-based, HEK293
Target sequence in this assay (Q15858 whole entry): as the sequence (Q15858 whole entry, looked up) above

[3] = Plasma clearance in Sprague-Dawley rat; type: ADME, organism-based
[4] = Bioavailability in Sprague-Dawley rat; type: ADME, organism-based; settings: in vivo
Rattus norvegicus [5] = assay: Analgesic activity in Freund's complete adjuvant-induced rat pain model assessed as reversal of mechanic allodynia at 3 mg/kg, po after 2 hrs; type: functional
Rattus norvegicus [6] = assay: Analgesic activity in Freund's complete adjuvant-induced rat pain model assessed as reversal of mechanic allodynia at 3 mg/kg, po after 3 hrs; type: functional
[7] = Half life in Sprague-Dawley rat; type: ADME, organism-based; settings: in vivo
Rattus norvegicus [8] = assay: Analgesic activity in Freund's complete adjuvant-induced rat pain model assessed as reversal of mechanic allodynia at 10 mg/kg, po after 3 hrs; type: functional
Rattus norvegicus [9] = assay: Analgesic activity in spinal nerve ligation-induced rat neuropathic pain model assessed as reversal of allodynia at 10 mg/kg, po after 3 hrs; type: functional

In the case of `O=C(NCc1ccc(OC(F)(F)F)cc1)[C@@H]1CCC[C@H]1C1=NC(c2ccc(Cl)cc2)CO1` (mixture of isomers), the inhibition [1] is reported as 56% and the IC50 [2] is reported as 0.97 µM.

Work on `O=C(NCc1ccc(OC(F)(F)F)cc1)[C@@H]1CCC[C@H]1C1=NOC(c2ccc(Cl)cc2)C1` (mixture of isomers) yielded an inhibition [1] of 92% and an IC50 [2] of 0.43 µM.

In the case of `O=C(NCc1ccc(OC(F)(F)F)cc1)[C@@H]1CCC[C@H]1C1=NOC(c2ccc(OC(F)(F)F)cc2)C1` (mixture of isomers), the inhibition [1] is reported as 93% and the IC50 [2] is reported as 0.5 µM.

In the case of `O=C(NCc1ccc(OC(F)(F)F)cc1)[C@@H]1CCC[C@H]1C1=NOC(c2cccc(Cl)c2)C1` (mixture of isomers), the inhibition [1] is reported as 90% and the IC50 [2] is reported as 0.48 µM.

Compound `O=C(NCc1ccc(OC(F)(F)F)cc1)[C@@H]1CCC[C@H]1C1=NCC(c2ccccc2)O1` (mixture of isomers) has an inhibition [1] of 71% and an IC50 [2] of 0.62 µM.

Work on `COC(=O)c1ccc(C2CC([C@@H]3CCC[C@H]3C(=O)NCc3ccc(OC(F)(F)F)cc3)=NO2)cc1` (mixture of isomers) yielded an inhibition [1] of 87% and an IC50 [2] of 0.34 µM.

With `O=C(NCc1ccc(OC(F)(F)F)cc1)[C@@H]1CCC[C@H]1C1=NOC(c2ccccc2)C1` (mixture of isomers) the inhibition [1] was 76% and the IC50 [2] was 0.78 µM.

Work on `CC(C)Oc1ccc(CNC(=O)[C@@H]2CCC[C@H]2C2=NOC(C)(c3ccccc3)C2)cc1` (mixture of isomers) yielded an IC50 [2] of 1.5 µM.

Compound `CC1(c2ccccc2)CC([C@@H]2CCC[C@H]2C(=O)NCc2ccc(OC(F)(F)F)cc2)=NO1` (mixture of isomers) [listing 1 of 2 here] has a clearance [3] of 1.07 L/h/kg, a bioavailability [4] of 16% and an Activity (Rattus norvegicus [5]) of 20%. For the same compound, the Activity (Rattus norvegicus [6]; 3 mg/kg) was 48%, the IC50 [2] was 0.62 µM and the half-life [7] was 2.9 h.

`CC1(c2ccccc2)CC([C@@H]2CCC[C@H]2C(=O)NCc2ccc(C(F)(F)F)cc2)=NO1` (mixture of isomers) showed an IC50 [2] of 2.5 µM.

`COC(=O)c1cccc(C2CC([C@@H]3CCC[C@H]3C(=O)NCc3ccc(OC(F)(F)F)cc3)=NO2)c1` (mixture of isomers) showed an inhibition [1] of 75% and an IC50 [2] of 0.71 µM.

Compound `CC(C)(C)Oc1ccc(CNC(=O)[C@@H]2CCC[C@H]2C2=NOC(C)(c3ccccc3)C2)cc1` (mixture of isomers) has an inhibition [1] of 26%.

In the case of `CC1(c2ccccc2)CC([C@@H]2CCC[C@H]2C(=O)NCc2ccc(-c3ccccc3S(C)(=O)=O)cc2)=NO1` (mixture of isomers), the inhibition [1] is reported as 0%.

`CC1(c2ccccc2)CC([C@@H]2CCC[C@H]2C(=O)NCc2ccc(Cl)cc2)=NO1` (mixture of isomers) gave an inhibition [1] of 15%.

Compound `CC1(c2ccccc2)CC([C@@H]2CCC[C@H]2C(=O)NCc2ccc(OC(F)(F)F)cc2)=NO1` (mixture of isomers) [listing 2 of 2 here] has an inhibition [1] of 63%.

For `CC1(c2ccccc2)CC([C@@H]2CCC[C@H]2C(=O)NCc2ccc(OC(F)(F)F)cc2S(C)(=O)=O)=NO1` (mixture of isomers), the inhibition [1] was 13%.

In the case of `CC1(c2ccccc2)CC([C@@H]2CCC[C@H]2C(=O)NCc2ccccc2)=NO1` (mixture of isomers), the inhibition [1] is reported as 19%.

Compound `CC1(c2ccccc2)CC([C@@H]2CCC[C@H]2C(=O)Nc2ccc(OC(F)(F)F)cc2)=NO1` (mixture of isomers) has an inhibition [1] of 30%.

With `CC1(c2ccccc2)CC([C@@H]2CCC[C@H]2C(=O)Nc2ccc3ncccc3c2)=NO1` (mixture of isomers) the inhibition [1] was 17%.

`CN(Cc1ccc(-c2ccccc2S(C)(=O)=O)cc1)C(=O)[C@@H]1CCC[C@H]1C1=NOC(C)(c2ccccc2)C1` (mixture of isomers) gave an inhibition [1] of 0%.

Compound `CNC(=O)c1ccc(C2CC([C@@H]3CCC[C@H]3C(=O)NCc3ccc(OC(F)(F)F)cc3)=NO2)cc1` (mixture of isomers) has an inhibition [1] of 14%.

`CS(=O)(=O)c1ccc(C2CC([C@@H]3CCC[C@H]3C(=O)NCc3ccc(OC(F)(F)F)cc3)=NO2)cc1` (mixture of isomers) showed an inhibition [1] of 26%.

For `CS(=O)(=O)c1ccc(C2CC([C@@H]3CCC[C@H]3c3cc(-c4ccccc4)on3)=NO2)cc1` (mixture of isomers), the inhibition [1] was 43%.

Compound `Clc1cc(Cl)cc(C2CC([C@@H]3CCC[C@H]3c3cc(-c4ccccc4)on3)=NO2)c1` (mixture of isomers) has an inhibition [1] of 35%.

`FC(F)(F)Oc1ccc(C2CC([C@@H]3CCC[C@H]3c3cc(-c4ccccc4)on3)=NO2)cc1` (mixture of isomers) showed an inhibition [1] of 18%.

In the case of `NC(=O)c1ccc(C2CC([C@@H]3CCC[C@H]3C(=O)NCc3ccc(OC(F)(F)F)cc3)=NO2)cc1` (mixture of isomers), the inhibition [1] is reported as 0%.

Compound `O=C(NCc1ccc(OC(F)(F)F)cc1)[C@@H]1CCC[C@H]1C1=NOC(CO)(c2ccccc2)C1` (mixture of isomers) has an inhibition [1] of 23%.

Work on `O=C(NCc1ccc(OC(F)(F)F)cc1)[C@@H]1CCC[C@H]1C1=NOC(c2ccccn2)C1` (mixture of isomers) yielded an inhibition [1] of 0%.

`O=C(O)c1ccc(C2CC([C@@H]3CCC[C@H]3C(=O)NCc3ccc(OC(F)(F)F)cc3)=NO2)cc1` (mixture of isomers) gave an inhibition [1] of 0%.

`c1ccc(-c2cc([C@@H]3CCC[C@H]3C3=NOC(c4ccccc4)C3)no2)cc1` (mixture of isomers) gave an inhibition [1] of 13%.

For `O=C(NCc1ccc(OC(F)(F)F)cc1)[C@@H]1CCC[C@H]1c1cc(-c2ccc(Cl)cc2)on1` (racemic), the inhibition [1] was 33%.

With `O=C(NCc1ccc(OC(F)(F)F)cc1)[C@@H]1CCC[C@H]1c1cc(-c2ccccc2)on1` (racemic) the inhibition [1] was 38%.

For `O=C(NCc1ccc(OC(F)(F)F)cc1)[C@@H]1CCC[C@H]1c1nc(-c2ccccc2)co1` (racemic), the inhibition [1] was 19%.

`O=C(NCc1ccc(OC(F)(F)F)cc1)[C@@H]1CCC[C@H]1c1ncc(-c2ccccc2)o1` (racemic) showed an inhibition [1] of 0%.

`CN(Cc1ccc(-c2ccccc2S(N)(=O)=O)cc1)C(=O)[C@@H]1CCC[C@H]1C(=O)NCc1ccc(OC(F)(F)F)cc1` (relative stereo) showed an Activity (Rattus norvegicus [8]) of 54%, an Activity (Rattus norvegicus [6]) of 31% and an IC50 [2] of 0.83 µM. It also gave an Activity (Rattus norvegicus [9]) of 35%.

For `CC1(c2ccccc2)CC([C@@H]2CCC[C@H]2C(=O)NCc2ccc(OC(F)(F)F)cc2)=NO1` (relative stereo) [listing 1 of 2 here], the Activity (Rattus norvegicus [6]; 3 mg/kg) was 31%.

Work on `CC1(c2ccccc2)CC([C@@H]2CCC[C@H]2C(=O)NCc2ccc(OC(F)(F)F)cc2)=NO1` (relative stereo) [listing 2 of 2 here] yielded an inhibition [1] of 35%.

Work on `COc1ccc(CNC(=O)[C@@H]2CCC[C@H]2C2=NOC(C)(c3ccccc3)C2)cc1` (relative stereo) yielded an inhibition [1] of 16%.

`CC1(c2ccccc2)CC([C@@H]2CCC[C@H]2C(=O)NCc2ccc(OC(F)(F)F)cc2)=NO1` (single isomer, unassigned; diastereomer a) [listing 1 of 2 here] showed an Activity (Rattus norvegicus [6]; 3 mg/kg) of 53%, an IC50 [2] of 0.96 µM and an Activity (Rattus norvegicus [9]) of 21%.

For `CC1(c2ccccc2)CC([C@@H]2CCC[C@H]2C(=O)NCc2ccc(OC(F)(F)F)cc2)=NO1` (single isomer, unassigned; diastereomer a) [listing 2 of 2 here], the inhibition [1] was 64%.

With `CC1(c2ccccc2)CC([C@@H]2CCC[C@H]2C(=O)NCc2ccc(OC(F)(F)F)cc2)=NO1` (single isomer, unassigned; diastereomer b) [listing 1 of 2 here] the Activity (Rattus norvegicus [6]; 3 mg/kg) was 26%.

In the case of `CC1(c2ccccc2)CC([C@@H]2CCC[C@H]2C(=O)NCc2ccc(OC(F)(F)F)cc2)=NO1` (single isomer, unassigned; diastereomer b) [listing 2 of 2 here], the inhibition [1] is reported as 37%.

`CC1(c2ccccc2)CC([C@@H]2CCC[C@H]2C(=O)NCc2ccc(OC(F)(F)F)cc2)=NO1` (single isomer, unassigned; diastereomer c) [listing 1 of 2 here] showed an Activity (Rattus norvegicus [6]; 3 mg/kg) of 20% and an IC50 [2] of 1.2 µM.

`CC1(c2ccccc2)CC([C@@H]2CCC[C@H]2C(=O)NCc2ccc(OC(F)(F)F)cc2)=NO1` (single isomer, unassigned; diastereomer c) [listing 2 of 2 here] showed an inhibition [1] of 48%.
